Literature values in patent US20110045130A1, “BIOACTIVE PEPTIDE PRODUCTION” (priority 2007, published 2011).

Legend:
[1] = system: spontaneously hypertensive rats; conditions: tripeptides derived from lactic acid bacteria fermented milk
[2] = target: angiotensin converting enzyme (ACE) (Homo sapiens, UniProt P12821); conditions: in vitro effect on ACE activity; relatively low IC50 values
Chain of angiotensin converting enzyme (ACE) (P12821 30-1306, species assumed): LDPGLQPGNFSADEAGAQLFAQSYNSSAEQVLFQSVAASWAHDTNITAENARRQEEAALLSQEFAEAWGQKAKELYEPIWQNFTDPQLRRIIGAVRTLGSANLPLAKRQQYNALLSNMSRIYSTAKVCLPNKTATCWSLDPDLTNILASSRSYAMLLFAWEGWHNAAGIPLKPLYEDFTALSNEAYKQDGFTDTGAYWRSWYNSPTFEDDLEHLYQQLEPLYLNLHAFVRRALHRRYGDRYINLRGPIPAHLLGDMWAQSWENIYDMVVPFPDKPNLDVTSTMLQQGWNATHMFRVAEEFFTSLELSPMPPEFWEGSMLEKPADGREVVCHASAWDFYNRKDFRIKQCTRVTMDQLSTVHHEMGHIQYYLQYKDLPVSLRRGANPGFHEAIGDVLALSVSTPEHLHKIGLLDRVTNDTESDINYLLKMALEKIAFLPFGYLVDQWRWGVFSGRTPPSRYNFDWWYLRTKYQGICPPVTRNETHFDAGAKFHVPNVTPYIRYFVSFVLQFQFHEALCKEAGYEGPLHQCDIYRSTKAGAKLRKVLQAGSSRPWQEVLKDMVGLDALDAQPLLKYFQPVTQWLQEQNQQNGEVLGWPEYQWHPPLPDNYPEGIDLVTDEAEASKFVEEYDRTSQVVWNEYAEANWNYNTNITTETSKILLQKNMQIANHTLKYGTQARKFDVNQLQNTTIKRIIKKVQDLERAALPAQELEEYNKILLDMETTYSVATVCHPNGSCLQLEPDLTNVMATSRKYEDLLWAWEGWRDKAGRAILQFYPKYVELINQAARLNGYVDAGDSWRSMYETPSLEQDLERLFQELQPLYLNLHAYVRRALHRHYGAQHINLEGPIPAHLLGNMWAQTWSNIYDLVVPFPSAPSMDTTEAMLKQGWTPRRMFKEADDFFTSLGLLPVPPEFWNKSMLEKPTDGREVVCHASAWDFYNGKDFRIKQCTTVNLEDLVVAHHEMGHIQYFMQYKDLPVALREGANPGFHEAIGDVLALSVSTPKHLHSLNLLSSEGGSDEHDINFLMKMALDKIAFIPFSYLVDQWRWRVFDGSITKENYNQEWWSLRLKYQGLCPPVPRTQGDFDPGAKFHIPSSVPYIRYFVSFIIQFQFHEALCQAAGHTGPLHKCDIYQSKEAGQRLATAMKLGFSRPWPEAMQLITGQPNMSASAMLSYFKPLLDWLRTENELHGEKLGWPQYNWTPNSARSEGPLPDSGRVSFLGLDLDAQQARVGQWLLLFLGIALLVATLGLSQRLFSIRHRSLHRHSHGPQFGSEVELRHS

Row | Substance | antihypertensive effects [1] | ACE inhibiting activity [2]
1 | Ile-Pro-Pro [IPP] | confirmed | Strong ACE inhibiting activities
2 | Leu-Pro-Pro [LPP] |  | Strong ACE inhibiting activities
3 | Val-Pro-Pro [VPP] | confirmed | Strong ACE inhibiting activities
